{"source": "patent US12303621B2", "about": "“Use of self-assembled alkylsilane coatings for drug delivery applications” (priority 2017, dated 2025)", "assay": "In vitro release of TC or Rh in simulated body fluid (SBF) from alkylsilane-coated Mg discs", "format": "physicochemical", "settings": "alkylsilane coated Mg disks incubated in SBF, room temperature, 21 day period, sampled every two days; FIG. 1; one way ANOVA highly significant", "procedure": "Self-assembled hybrid […] (AS) films on Mg were prepared using a dip-coating technique. The precursor solution was prepared by mixing 0.25 ml (0.73 mM) of […]) (Alfa Aesar, Ward Hill, MA, USA), 0.43 ml (2.92 mM) of […]) (Alfa Aesar, Ward Hill, MA, USA), 2 ml (0.032 mM) of ethanol and 0.25 ml of 0.010 mM HCl (aq.). […] Both the solutions were kept in the dark to avoid contact with light The Mg discs passivated with NaOH were dip coated in the TC- or Rh-containing solution for 1 minute, and dried in air for 10 minutes at room temperature in the dark. The discs were subsequently dried in an incubator at 37° C. for 24 hours to remove any trace amounts of organic solvents. […] Every two days, 150 μl of SBF was taken from each tube and concentrations of Tc and Rh were determined spectroscopically. The concentrations of TC or Rh were determined by measuring absorbance at 280 nm for TC, and fluorescence at excitation/emission wavelengths of 525/555 nm for Rh using a Synergy H1 microplate reader (BioTek instruments, Winooski, VT, USA). Standard curves were created by measuring absorbance and fluorescence intensities of the series of TC and Rh samples of known concentrations. Absorbance and Fluorescence intensity of each sample was calculated as an average of three separate readings. […] Cumulative release of TC or Rh over 21 day period was determined."}
{"substance": "rhodamine", "values": [{"measurement": "concentration in SBF media (cumulative release)", "result": "incremental increase"}]}
